Measurements reported in ChEMBL document CHEMBL3714713, “4-phenyl-pyrimido [4,5-b] indole derivatives” (2004).
Active and inactive are the calls of the source. The calls are words filed in the database; no cut-off is given here.

Assays:
Mus musculus [1] = assay: Inhibition of anti-CD3 antibody-induced IFNgamma production in Balb/c mouse dosed intravenously 5 mins before anti-CD3 antibody injection and measured 2 hrs post-challenge by ELISA; format: functional, organism-based
Mus musculus [2] = assay: Inhibition of anti-CD3 antibody-induced IL4 production in Balb/c mouse dosed intravenously 5 mins before anti-CD3 antibody injection and measured 2 hrs post-challenge by ELISA; format: functional, organism-based
Mus musculus [3] = assay: Inhibition of anti-CD3 antibody-induced IL2 production in Balb/c mouse dosed intravenously 5 mins before anti-CD3 antibody injection and measured 2 hrs post-challenge by ELISA; format: functional, organism-based
[4] = biological target: T1, Dual specificity mitogen-activated protein kinase kinase 7 (Homo sapiens, UniProt O14733); assay: Inhibition of GST-tagged human MKK7 expressed in Escherichia coli (BL21(DE3) pLysS) co-expressing human MEKK catalytic domain using biotinylated and GST-tagged rat GST-KN-SAPKalpha substrate incubated for 1 hr by time-resolved fluorescence based assay
T1 sequence (O14733 whole entry): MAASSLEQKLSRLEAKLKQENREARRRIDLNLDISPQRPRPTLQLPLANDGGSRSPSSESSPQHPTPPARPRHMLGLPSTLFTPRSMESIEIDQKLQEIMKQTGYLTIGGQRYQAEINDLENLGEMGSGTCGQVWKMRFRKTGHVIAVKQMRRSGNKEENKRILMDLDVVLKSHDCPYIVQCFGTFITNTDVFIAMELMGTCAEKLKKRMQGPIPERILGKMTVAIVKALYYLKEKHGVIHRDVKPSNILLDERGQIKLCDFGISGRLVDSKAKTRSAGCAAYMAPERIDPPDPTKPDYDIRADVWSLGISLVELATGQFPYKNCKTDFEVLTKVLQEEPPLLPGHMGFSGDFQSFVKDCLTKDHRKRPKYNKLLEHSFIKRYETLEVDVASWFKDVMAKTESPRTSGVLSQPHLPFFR

Compound | Activity (Mus musculus [1]) | Activity (Mus musculus [2]) | Activity (Mus musculus [3]) | IC50 [4] [µM]
N#Cc1ccc2[nH]c3ncnc(-c4ccc(F)cc4)c3c2c1 | Active | Active | Active | –
CN(C)c1ccc(-c2ncnc3[nH]c4ccc(C(N)=O)cc4c23)cc1 | Active | Active | Active | 1
NC(=O)c1ccc2[nH]c3ncnc(-c4ccccc4)c3c2c1 | Active | Active | Active | ≤ 1
N#Cc1ccc2[nH]c3nc(N)nc(-c4ccccc4)c3c2c1 | Active | Active | Active | –
NC(=O)c1ccc2[nH]c3ncnc(-c4ccc(F)cc4)c3c2c1 | Active | Active | Active | ≤ 1
NC(=O)c1ccc2[nH]c3ncnc(-c4cccc(N)c4)c3c2c1 | Active | Active | Active | –
Oc1ccc2[nH]c3ncnc(-c4ccc(F)cc4)c3c2c1 | Active | Active | Active | ≤ 1
COc1ccc(-c2ncnc3[nH]c4ccc(C(N)=O)cc4c23)cc1 | Active | Active | Active | –
N#Cc1ccc2[nH]c3ncnc(-c4ccccc4)c3c2c1 | Active | Active | Active | –
NC(=O)c1ccc2[nH]c3nc(N)nc(-c4ccccc4)c3c2c1 | Active | Active | Active | ≤ 1
Oc1ccc2[nH]c3ncnc(-c4ccccc4)c3c2c1 | Active | Active | Active | ≤ 1
COc1ccc(-c2ncnc3[nH]c4ccc(OC)cc4c23)cc1 | Active | Active | Active | –
CN(C)c1ccc(-c2ncnc3[nH]c4ccc(C#N)cc4c23)cc1 | Active | Active | Active | –
N#Cc1ccc2[nH]c3ncnc(-c4cccc(N)c4)c3c2c1 | Active | Active | Active | –
COc1ccc(-c2ncnc3[nH]c4ccc(C#N)cc4c23)cc1 | Active | Active | Active | –
COc1ccc2[nH]c3ncnc(-c4ccccc4)c3c2c1 | Active | Active | Active | –
COc1ccc(-c2ncnc3[nH]c4ccc(O)cc4c23)cc1 | Active | Active | Active | ≤ 1
